From US20260335299A1, “SUBSTITUTED OXOISOINDOLINYL PIPERIDINE-2,6-DIONE COMPOUND AS ANTICANCER AGENT” (BRISTOL-MYERS SQUIBB COMPANY, priority 2023, published 2026)

Tests used:
IKZF3 Aiolos = IKZF3 Aiolos (Homo sapiens, UniProt Q96SW2+Q9UKT9); assay: Jurkat Cellular Degradation Assay (Aiolos); format: cell-based; parameters: endogenous in cells; host or cells: Jurkat cells; details: Jurkat cells, 72 h
Experimental: Jurkat cells were plated at 80,000 cells/well in 40 μL RPMI+10% FBS in a 384-well cell culture plate prior to using acoustic dispensing technology for adding a compound of interest. Cell cultures were incubated for 72 h at 37° C. and 5% CO2. In order to facilitate analysis, cell cultures were spun down at 200 rpm for 5 min and the supernatant was discarded. After shaking the plate to dislodge the cell pellet, cells were resuspended in 50 μL of Fixation Buffer (eBioscience FoxP3 buffer set 00-5523-00) for 60 min at room temperature. After centrifuging and discarding the supernatant, cells were permeabilized with 50 μL of Permeabilization buffer (eBioscience FoxP3 buffer set 00-5523-00) for 10 min at room temperature. Following permeabilization, cells were spun down and the supernatant was replaced with 20 μL fluorescently labelled antibodies against Helios, Ikaros and Aiolos or corresponding Isotype controls in 1× Permeabilization buffer (Ikaros-Alexa488 [Biolegend, Cat #368408, 1:50], Helios-PE [CST, Cat #29360, 1:50], Aiolos-Alexa647 [Biolegend, Cat #371106 Biolegend, 1:25]) and staining reactions were incubated for 1 h at room temperature while protected from light. Subsequently, 30 μL of 1× Permeabilization buffer was added prior to centrifuging the cells and discarding the supernatant. Stained cells were resuspended in 25 μL of flow cytometry staining buffer [PBS+0.2% bovine serum albumin (BSA)] and analyzed using an Intellicyt Ique Plus flow cytometer.
(§1) Table A-1 lists the maximum observed degradation of the IKZF1 protein, IKZF2 protein, and IKZF3 protein as measured in the Jurkat Cellular Degradation assay. The results in Table A-I were rounded to two digits. In the Jurkat Cellular Degradation assay, a value of 100% indicated no detectable protein remaining or complete degradation of the protein; and a value of 0% indicated no detectable degradation of the protein by the test compound.

IKZF1 Ikaros = IKZF1 Ikaros (Homo sapiens, UniProt Q13422+Q96SW2); assay: Human Regulatory T Cell Degradation Assay (Ikaros); format: cell-based; details: human regulatory T cells, 20 h
Sequence of IKZF1 Ikaros (Q13422 whole entry): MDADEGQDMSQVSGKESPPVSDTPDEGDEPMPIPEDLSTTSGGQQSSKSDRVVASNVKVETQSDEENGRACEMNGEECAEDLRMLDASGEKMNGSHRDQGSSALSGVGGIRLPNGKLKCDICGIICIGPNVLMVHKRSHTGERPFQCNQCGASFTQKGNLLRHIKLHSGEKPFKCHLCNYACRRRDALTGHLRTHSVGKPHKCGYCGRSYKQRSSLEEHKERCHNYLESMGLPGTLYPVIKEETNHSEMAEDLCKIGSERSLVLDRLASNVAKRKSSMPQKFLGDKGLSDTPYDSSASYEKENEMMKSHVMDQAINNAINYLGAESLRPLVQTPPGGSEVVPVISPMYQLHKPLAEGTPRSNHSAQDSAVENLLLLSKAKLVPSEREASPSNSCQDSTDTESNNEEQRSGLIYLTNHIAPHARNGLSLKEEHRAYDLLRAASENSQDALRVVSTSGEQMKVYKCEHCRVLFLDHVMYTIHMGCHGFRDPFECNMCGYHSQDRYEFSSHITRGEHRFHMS
Sequence of IKZF1 Ikaros (Q96SW2 whole entry): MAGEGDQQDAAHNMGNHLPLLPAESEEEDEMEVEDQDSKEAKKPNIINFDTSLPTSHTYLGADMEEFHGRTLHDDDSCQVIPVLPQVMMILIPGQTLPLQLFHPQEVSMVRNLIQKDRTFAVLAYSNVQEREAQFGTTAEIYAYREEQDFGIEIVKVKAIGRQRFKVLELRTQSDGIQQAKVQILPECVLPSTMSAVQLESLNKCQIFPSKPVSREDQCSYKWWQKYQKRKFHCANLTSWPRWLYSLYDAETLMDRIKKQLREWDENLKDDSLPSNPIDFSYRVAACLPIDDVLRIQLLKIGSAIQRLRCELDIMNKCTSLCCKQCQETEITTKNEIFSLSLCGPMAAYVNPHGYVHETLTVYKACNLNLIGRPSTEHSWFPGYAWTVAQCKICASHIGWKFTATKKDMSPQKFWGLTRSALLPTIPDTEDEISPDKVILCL
Sequence of IKZF1 Ikaros (Q16531 whole entry partner): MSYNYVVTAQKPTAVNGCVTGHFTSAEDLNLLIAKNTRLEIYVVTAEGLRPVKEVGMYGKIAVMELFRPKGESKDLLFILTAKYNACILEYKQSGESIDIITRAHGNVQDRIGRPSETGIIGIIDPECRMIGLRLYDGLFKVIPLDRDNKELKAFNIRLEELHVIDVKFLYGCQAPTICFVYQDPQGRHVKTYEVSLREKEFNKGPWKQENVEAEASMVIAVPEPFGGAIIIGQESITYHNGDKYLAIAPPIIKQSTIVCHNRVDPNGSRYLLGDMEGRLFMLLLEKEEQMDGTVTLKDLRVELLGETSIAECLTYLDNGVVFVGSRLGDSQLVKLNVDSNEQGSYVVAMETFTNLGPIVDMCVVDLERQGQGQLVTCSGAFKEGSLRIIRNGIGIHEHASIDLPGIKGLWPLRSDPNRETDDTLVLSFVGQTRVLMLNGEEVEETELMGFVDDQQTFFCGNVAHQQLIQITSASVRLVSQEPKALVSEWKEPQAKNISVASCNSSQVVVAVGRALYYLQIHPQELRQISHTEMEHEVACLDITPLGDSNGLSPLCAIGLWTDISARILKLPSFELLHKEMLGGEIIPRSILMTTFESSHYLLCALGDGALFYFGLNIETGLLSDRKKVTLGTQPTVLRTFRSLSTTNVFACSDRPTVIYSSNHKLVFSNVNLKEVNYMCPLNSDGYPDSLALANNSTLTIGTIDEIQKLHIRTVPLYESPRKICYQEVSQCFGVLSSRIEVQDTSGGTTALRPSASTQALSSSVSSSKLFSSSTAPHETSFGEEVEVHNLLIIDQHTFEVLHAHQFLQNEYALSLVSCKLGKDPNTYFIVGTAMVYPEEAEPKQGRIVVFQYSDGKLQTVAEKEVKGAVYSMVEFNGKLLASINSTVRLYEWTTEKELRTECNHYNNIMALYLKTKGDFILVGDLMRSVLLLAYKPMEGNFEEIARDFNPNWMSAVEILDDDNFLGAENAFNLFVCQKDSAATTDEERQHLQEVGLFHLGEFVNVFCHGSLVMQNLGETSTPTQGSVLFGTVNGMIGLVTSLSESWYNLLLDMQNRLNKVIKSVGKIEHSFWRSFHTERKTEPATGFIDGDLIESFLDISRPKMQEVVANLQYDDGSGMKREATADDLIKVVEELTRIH
Experimental: Cryopreserved human regulatory T cells were thawed in RPMI+10% FBS+20 ng/mL IL-2. After being spun at 1200 rpm for 5 mins, the cells were resuspended in RPMI+10% FBS+20 ng/ml and rested at 37° C. with 5% CO2 for 3 hours. The cells were then plated at 40,000 cells/well in 40 μL RPMI+10% FBS+20 ng/mL human IL-2 in a 384 well cell culture plate prior to using acoustic dispensing technology (ECHO 555) for adding compounds of interest. Cell cultures were incubated for 20 hours at 37° C. and 5% CO2. In order to facilitate analysis, cell cultures were spun down at 1200 rpm for 5 minutes and the supernatant was discarded using an EL406 plate washer. After washing three times with […] PBS, cell pellets were resuspended in 50 μL of […] viability staining solution (Life Technologies, Cat #L34975) and incubated for 30 minutes on ice protected from light. Cells were washed three times with 70 μL PBS+0.5% BSA using an EL406 plate washer. After shaking the plate to dislodge the cell pellet, cells were resuspended in 50 μL of Fixation Buffer (eBioScience FoxP3 buffer set 00-5523-00) for 60 minutes at room temperature. After centrifuging and discarding the supernatant, cells were permeabilized with 50 μL of permeabilization buffer (eBioScience FoxP3 buffer set 00-5523-00) for 10 minutes at room temperature. Following permeabilization, cells were spun down and the supernatant was replaced with 30 μL fluorescently labelled antibodies against the intracellular targets Helios (Helios-APC [BioLegend, Cat #137222, 1:50])]), Aiolos, and Ikaros 1× Permeabilization buffer and staining reactions were incubated for 1 hour at room temperature; protected from light. Subsequently, […] Permeabilization buffer was added prior to centrifuging the cells and discarding the supernatant. Stained cells were resuspended in 30 μL of flow cytometry staining buffer (PBS+0.5% BSA) and analyzed using an Intellicyt Ique Plus flow cytometer.
as §1, with “B-1” for “A-1”, “protein and” for “protein,”, “IKZF2” for “IKZF2 protein, and IKZF3”, “Human Regulatory T Cell” for “Jurkat Cellular”, “B-1” for “A-I”

[1] = concentration reducing protein level by 50% compared to DMSO alone

Sequence of IKZF3 Aiolos (Q9UKT9 whole entry): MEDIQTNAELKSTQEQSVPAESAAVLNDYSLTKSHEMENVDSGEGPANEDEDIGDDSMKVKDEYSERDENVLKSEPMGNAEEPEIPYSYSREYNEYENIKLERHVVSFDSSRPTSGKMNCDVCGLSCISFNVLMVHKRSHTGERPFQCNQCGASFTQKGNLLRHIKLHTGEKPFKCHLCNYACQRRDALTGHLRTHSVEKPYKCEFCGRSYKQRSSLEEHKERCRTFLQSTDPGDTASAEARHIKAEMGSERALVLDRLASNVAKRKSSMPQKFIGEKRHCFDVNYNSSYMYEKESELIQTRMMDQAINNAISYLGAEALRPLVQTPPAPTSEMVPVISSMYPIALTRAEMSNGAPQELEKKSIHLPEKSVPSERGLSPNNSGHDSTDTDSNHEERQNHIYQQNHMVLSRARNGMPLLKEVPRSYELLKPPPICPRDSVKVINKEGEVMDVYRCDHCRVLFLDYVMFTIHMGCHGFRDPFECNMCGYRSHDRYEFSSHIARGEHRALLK
Sequence of IKZF3 Aiolos (Q96SW2 whole entry): as the sequence (Q96SW2 whole entry) above
Sequence of IKZF3 Aiolos (Q16531 whole entry partner): as the sequence (Q16531 whole entry partner) above

DC50 (IKZF3 Aiolos; [1]): > 10000 nM | Dmax (IKZF3 Aiolos; human, read-out: IKZF3 Aiolos max % deg. observed): 48% | Dmax (IKZF1 Ikaros; Regulatory T cell, read-out: IKZF1 Ikaros max % deg. observed): 62% | DC50 (IKZF1 Ikaros; [1]): 194 nM
SMILES: Nc1nc(-c2ccc3c(c2F)CN(C2CCC(=O)NC2=O)C3=O)ccc1CN1CC(C2CCC(F)(F)CC2)C1 (stereo not shown) [Example 1, 3-(5-(6-Amino-5-((3-(4,4-difluorocyclohexyl)azetidin-1-yl)methyl)pyridin-2-yl)-4-fluoro-1-oxoisoindolin-2-yl) piperidine-2,6-dione]
